{
  "source": "patent US10925846B2",
  "about": "“Phenylketone carboxylate compounds and pharmaceutical compositions for the prevention and treatment of osteoporosis” (Liminal BioSciences Limited, priority 2014, dated 2021)",
  "key": {"[1]": {"tested_on": "RAW264.7 cells", "conditions": "cited from earlier work"}, "[2]": {"tested_on": "ovariectomized (OVX) rats", "experiment": "Ovariectomized-rat model of osteoporosis", "format": "in vivo, Sprague Dawley rats", "source_text": "Although in comparison to humans, the skeletal mass of rats remains stable for a protracted period during their lifespan, rats can be ovariectomized to make them sex-hormone deficient, and to stimulate the accelerated loss of bone that occurs in women following menopause. Ovariectomy induced bone loss in the rat and postmenopausal bone loss share many similar characteristics. These include: increased rate of bone turnover with resorption exceeding formation; an initial rapid phase of bone loss followed by a much slower phase; greater loss of cancellous than cortical bone; decreased intestinal absorption of calcium; some protection against bone loss by obesity; and similar skeletal response to therapy with estrogen, tamoxifen, bisphosphonates, parathyroid hormone, calcitonin and exercise. These wide-ranging similarities are strong evidence that the ovariectomized rat bone loss model is suitable for studying problems that are relevant to postmenopausal bone loss.\nSprague Dawley rats (250 g) were ovariectomized (OVX) at day 0. Rats were treated by oral gavage with Compound I (10 mg/kg) from day 14 to day 68. Evaluation of different parameters (body weight, calcium loss, osteoclast markers (RANKL and TRAP mRNA expression), collagen content and histology was performed at day 68."}, "[3]": {"tested_on": "LPS-stimulated RAW264.7 cells", "experiment": "IL-12 production in LPS-stimulated RAW264.7 cells (IL-12 ELISA)", "format": "cell-based, murine", "experimental": "Accordingly, RAW264.7 cells are cultured with 100 ng/mL of LPS in presence or absence of the compound(s) for 21 h in a humidified atmosphere of 95% air-5% carbon dioxide at 37° C. IL-12 concentration in the culture medium is measured using the IL-12 ELISA according to the manufacturer (BD Biosciences) recommendations. […] Accordingly, an in vitro IL-12 production assay was used for screening potential inhibitors of osteoclastogenesis."}, "[4]": {"conditions": "compound concentration 0.020 mM"}},
  "data": [
    {"compound": "CCCCCCCCCC(=O)O", "note": "[capric acid]", "values": [
      {"measurement": "IL-12 production", "setting": "[1]; LPS-stimulated RAW264.7 cells", "result": "increases"},
      {"measurement": "LPS-upregulated iNOS mRNA levels and nitric oxide (NO) production", "setting": "[1]; LPS", "result": "inhibited"},
      {"measurement": "phosphatase (TRAP)-positive cells (osteoclast differentiation marker)", "setting": "[1]; RAW264.7 cells", "result": "reduction"},
      {"measurement": "monocyte chemoattractant protein-1 (MCP-1) mRNA expression", "setting": "[1]", "result": "inhibited"}
    ]},
    {"compound": "CCCCCCCCC(Oc1ccc(C(=O)CCCCCCC)cc1)C(=O)[O-].[Na+]", "note": "(racemic) [Compound I, Sodium (RS)-2-[4-Octanoylphenoxy]decanoate]", "values": [
      {"measurement": "body weight / ovariectomized-induced obesity", "setting": "[2]; 10 mg/kg oral gavage day 14 to day 68, FIG. 1", "result": "reduced ovariectomized-induced obesity"},
      {"measurement": "calcium loss in urine", "setting": "[2]; 10 mg/kg oral gavage, day 28 to day 56, FIG. 2", "result": "reduced significantly"},
      {"measurement": "acid phosphatase activity in serum", "setting": "[2]; 10 mg/kg oral gavage, day 28 to day 56, FIG. 3", "result": "reduced"},
      {"measurement": "ratio of mRNA expression of RANKL/OPG in rat tibia", "setting": "[2]; 10 mg/kg oral gavage, day 68, FIG. 4", "result": "decreased"},
      {"measurement": "collagen content in the metaphyse of the femur", "setting": "[2]; 10 mg/kg oral gavage, day 68, FIG. 5", "result": "increased"},
      {"measurement": "bone loss in the metaphysis portion of the femur (histology)", "setting": "[2]; 10 mg/kg oral gavage, day 68, FIGS. 6 and 7", "result": "reduced bone loss"},
      {"measurement": "IL-12", "setting": "[3]; compound concentration 0.0075 mM", "result": 112, "unit": "pg/mL"}
    ]},
    {"compound": "CCCCCCCCC(Oc1ccc(C(=O)CCC)cc1)C(=O)[O-].[Na+]", "note": "(racemic) [Compound V, Sodium (RS)-2-[4-Butyrylphenoxy]decanoate]", "values": [
      {"measurement": "melting point", "result": "262 to 278", "unit": "°C"},
      {"measurement": "IL-12", "setting": "[3]; compound concentration 0.040 mM", "result": 73.32, "unit": "pg/mL"}
    ]},
    {"compound": "CCCCCCCC(=O)c1cccc2c1CC(C(=O)[O-])C2.[Na+]", "note": "(racemic) [Compound III, Sodium (RS)-4-Octanoylindane-2-carboxylate]", "values": [
      {"measurement": "IL-12", "setting": "[3]; compound concentration 0.1 mM", "result": 24.95, "unit": "pg/mL"}
    ]},
    {"compound": "CCCCCCCCC(Cc1ccc(C(=O)CCCCCCC)cc1)C(=O)[O-].[Na+]", "note": "(racemic) [Compound VII, Sodium (RS)-2-[4-Octanoylbenzyl]decanoate]", "values": [
      {"measurement": "IL-12", "setting": "[3]; compound concentration 0.012 mM", "result": 8, "unit": "pg/mL"}
    ]},
    {"compound": "CCCCCCCCC(Oc1ccc(C(=O)CCCCC)cc1)C(=O)[O-].[Na+]", "note": "(racemic) [Compound VI, Sodium (RS)-2-[4-Hexanoylphenoxy]decanoate]", "values": [
      {"measurement": "melting point", "result": "275 to 280", "unit": "°C"},
      {"measurement": "IL-12", "setting": "[3]; [4]", "result": 53.5, "unit": "pg/mL"}
    ]},
    {"compound": "CCCCCCCC(=O)c1ccc(OC(CCCCCC)C(=O)[O-])cc1.[Na+]", "note": "(racemic) [Compound IV, Sodium (RS)-2-[4-Octanoylphenoxy]octanoate]", "values": [
      {"measurement": "melting point", "result": "165 to 170", "unit": "°C"},
      {"measurement": "IL-12", "setting": "[3]; [4]", "result": 12.13, "unit": "pg/mL"}
    ]}
  ]
}
